In this series the test system is cells. Briefly: MTT assay for cytotoxicity. Format: cell-based. Conditions: within a range of used concentrations; FIGS. 3a and 3b. On the technique in general: Tetrazolium dyes change colour on reduction, which living cells bring about.

No end group written: not given here.

As for “GQGFSYPYKAVFSTQ [BFP 1, Gly-Gln-Gly-Phe-Ser-Tyr-Pro-Tyr-Lys-Ala-Val-Phe-Ser-Thr-Gln]”, the cytotoxicity result was “neither BFP 1 nor BFP 2 are toxic to cells”. Then “VEHDKEFFHPRYHHR [BFP 2, Val-Glu-His-Asp-Lys-Glu-Phe-Phe-His-Pro-Arg-Tyr-His-His-Arg]”, with “neither BFP 1 nor BFP 2 are toxic to cells”.

Values taken from patent EP2311482A1, “Osteogenic synthetic BMP-7 peptides, pharmaceutical compositions cell culture medium containing same” (Industry Foundation Of Chonnam National University, priority 2009, dated 2011).
